The results in this text go back to ChEMBL document CHEMBL6115030, “Systematic All-Hydrocarbon Stapling Analysis for Cecropin A Generates a Potent and Stable Antimicrobial Peptide” (J Med Chem, 2025).

Each structure is given as a SMILES string. Values after ≈ are worked out from the molar mass of the structure shown. Bridge positions count the residues as written; N and C are the ends. Square brackets hold non-standard residues; d marks the D form. Peptide text beside a SMILES is read from it. S5 = C=CCCC[C@](C)(N)C(=O)O Where only a bound is given, the exact number is not on record here.

Assay type in all cases: functional
The subject of one experiment is Staphylococcus aureus. The experiment is described as follows: Antibacterial activity against Staphylococcus aureus ATCC 25923 assessed as inhibition of bacterial growth measured after 24 hrs by broth microdilution method.
The subject of a further experiment is Klebsiella pneumoniae. The experiment in a line: Antibacterial activity against Klebsiella pneumoniae ATCC 13883 assessed as inhibition of bacterial growth measured after 24 hrs by broth microdilution method. (In general: In broth dilution the organism is exposed to a series of concentrations in liquid medium.)
The next experiment deals with Pseudomonas aeruginosa. The experiment is described as follows: Antibacterial activity against Pseudomonas aeruginosa PAO1 assessed as inhibition of bacterial growth measured after 24 hrs by broth microdilution method.

Regarding `CC[C@H](C)[C@H](NC(=O)CNC(=O)[C@H](CC(=O)O)NC(=O)[C@H](CCCNC(=N)N)NC(=O)[C@@H](NC(=O)[C@H](CC(N)=O)NC(=O)[C@H](CCC(N)=O)NC(=O)CNC(=O)[C@@H](NC(=O)[C@H](CCCCN)NC(=O)[C@H](CCC(=O)O)NC(=O)[C@]1(C)CCC/C=C\CCC[C@](C)(NC(=O)[C@H](CCCCN)NC(=O)[C@H](Cc2c[nH]c3ccccc23)NC(=O)[C@H](CCCCN)NC(C)=O)C(=O)N[C@@H](Cc2ccccc2)C(=O)N[C@@H](CCCCN)C(=O)N[C@@H](CCCCN)C(=O)N1)C(C)C)[C@@H](C)CC)C(=O)N[C@H](C(=O)N[C@@H](CCCCN)C(=O)N[C@@H](C)C(=O)NCC(=O)N1CCC[C@H]1C(=O)N[C@@H](C)C(=O)N[C@H](C(=O)N[C@@H](C)C(=O)N[C@H](C(=O)N[C@H](C(=O)NCC(=O)N[C@@H](CCC(N)=O)C(=O)N[C@@H](C)C(=O)N[C@H](C(=O)N[C@@H](CCC(N)=O)C(=O)N[C@H](C(=O)N[C@@H](C)C(=O)N[C@@H](CCCCN)C(N)=O)[C@@H](C)CC)[C@@H](C)O)C(C)C)C(C)C)C(C)C)[C@@H](C)CC` (Ac-KWK[S5]FKK[S5]EKVGQNIRDGIIKAGPAVAVVGQATQIAK-NH2; staple (Z) 4-8), the figures for the MIC in the experiment with Staphylococcus aureus, in the experiment with Klebsiella pneumoniae and in the experiment with Pseudomonas aeruginosa were 25 µM (≈ 102 µg/mL), 6.25 µM (≈ 25.4 µg/mL) and over 100 µM, respectively.

For `CC[C@H](C)[C@H](NC(=O)CNC(=O)[C@H](CC(=O)O)NC(=O)[C@]1(C)CCC/C=C\CCC[C@](C)(NC(=O)[C@@H](NC(=O)[C@H](CCCCN)NC(=O)[C@H](CCC(=O)O)NC(=O)[C@@H](NC(=O)[C@H](CCCCN)NC(=O)[C@H](CCCCN)NC(=O)[C@H](Cc2ccccc2)NC(=O)[C@H](CC(C)C)NC(=O)[C@H](CCCCN)NC(=O)[C@H](Cc2c[nH]c3ccccc23)NC(=O)[C@H](CCCCN)NC(C)=O)[C@@H](C)CC)C(C)C)C(=O)N[C@@H](CCC(N)=O)C(=O)N[C@@H](CC(N)=O)C(=O)N[C@@H]([C@@H](C)CC)C(=O)N1)C(=O)N[C@H](C(=O)N[C@@H](CCCCN)C(=O)N[C@@H](C)C(=O)NCC(=O)N1CCC[C@H]1C(=O)N[C@@H](C)C(=O)N[C@H](C(=O)N[C@@H](C)C(=O)N[C@H](C(=O)N[C@H](C(=O)NCC(=O)N[C@@H](CCC(N)=O)C(=O)N[C@@H](C)C(=O)N[C@H](C(=O)N[C@@H](CCC(N)=O)C(=O)N[C@H](C(=O)N[C@@H](C)C(=O)N[C@@H](CCCCN)C(N)=O)[C@@H](C)CC)[C@@H](C)O)C(C)C)C(C)C)C(C)C)[C@@H](C)CC` (Ac-KWKLFKKIEKV[S5]QNI[S5]DGIIKAGPAVAVVGQATQIAK-NH2; staple (Z) 12-16), the MIC in the experiment with Staphylococcus aureus was 25 µM (≈ 102 µg/mL); with Klebsiella pneumoniae, over 100 µM; in the experiment on Pseudomonas aeruginosa, over 100 µM.

Turning to `CC[C@H](C)[C@H](NC(=O)CNC(=O)[C@]1(C)CCC/C=C\CCC[C@](C)(NC(=O)CNC(=O)[C@@H](NC(=O)[C@H](CCCCN)NC(=O)[C@H](CCC(=O)O)NC(=O)[C@@H](NC(=O)[C@H](CCCCN)NC(=O)[C@H](CCCCN)NC(=O)[C@H](Cc2ccccc2)NC(=O)[C@H](CC(C)C)NC(=O)[C@H](CCCCN)NC(=O)[C@H](Cc2c[nH]c3ccccc23)NC(=O)[C@H](CCCCN)NC(C)=O)[C@@H](C)CC)C(C)C)C(=O)N[C@@H](CC(N)=O)C(=O)N[C@@H]([C@@H](C)CC)C(=O)N[C@@H](CCCNC(=N)N)C(=O)N1)C(=O)N[C@H](C(=O)N[C@@H](CCCCN)C(=O)N[C@@H](C)C(=O)NCC(=O)N1CCC[C@H]1C(=O)N[C@@H](C)C(=O)N[C@H](C(=O)N[C@@H](C)C(=O)N[C@H](C(=O)N[C@H](C(=O)NCC(=O)N[C@@H](CCC(N)=O)C(=O)N[C@@H](C)C(=O)N[C@H](C(=O)N[C@@H](CCC(N)=O)C(=O)N[C@H](C(=O)N[C@@H](C)C(=O)N[C@@H](CCCCN)C(N)=O)[C@@H](C)CC)[C@@H](C)O)C(C)C)C(C)C)C(C)C)[C@@H](C)CC` (Ac-KWKLFKKIEKVG[S5]NIR[S5]GIIKAGPAVAVVGQATQIAK-NH2; staple (Z) 13-17), the MIC is 50 µM (≈ 203 µg/mL) in the experiment on Staphylococcus aureus, 6.25 µM (≈ 25.3 µg/mL) in the experiment with Klebsiella pneumoniae and 100 µM (≈ 405 µg/mL) with Pseudomonas aeruginosa.

For `CC[C@H](C)[C@H](NC(=O)CNC(=O)[C@H](CC(=O)O)NC(=O)[C@H](CCCNC(=N)N)NC(=O)[C@@H](NC(=O)[C@H](CC(N)=O)NC(=O)[C@H](CCC(N)=O)NC(=O)CNC(=O)[C@@H](NC(=O)[C@H](CCCCN)NC(=O)[C@]1(C)CCC/C=C\CCC[C@](C)(NC(=O)[C@H](CC(C)C)NC(=O)[C@H](CCCCN)NC(=O)[C@H](Cc2c[nH]c3ccccc23)NC(=O)[C@H](CCCCN)NC(C)=O)C(=O)N[C@@H](CCCCN)C(=O)N[C@@H](CCCCN)C(=O)N[C@@H]([C@@H](C)CC)C(=O)N1)C(C)C)[C@@H](C)CC)C(=O)N[C@H](C(=O)N[C@@H](CCCCN)C(=O)N[C@@H](C)C(=O)NCC(=O)N1CCC[C@H]1C(=O)N[C@@H](C)C(=O)N[C@H](C(=O)N[C@@H](C)C(=O)N[C@H](C(=O)N[C@H](C(=O)NCC(=O)N[C@@H](CCC(N)=O)C(=O)N[C@@H](C)C(=O)N[C@H](C(=O)N[C@@H](CCC(N)=O)C(=O)N[C@H](C(=O)N[C@@H](C)C(=O)N[C@@H](CCCCN)C(N)=O)[C@@H](C)CC)[C@@H](C)O)C(C)C)C(C)C)C(C)C)[C@@H](C)CC` (Ac-KWKL[S5]KKI[S5]KVGQNIRDGIIKAGPAVAVVGQATQIAK-NH2; staple (Z) 5-9), the figures for the minimum inhibitory concentration (MIC) with Staphylococcus aureus, in the experiment on Klebsiella pneumoniae and in the experiment with Pseudomonas aeruginosa were 1.56 µM (≈ 6.27 µg/mL), 6.25 µM (≈ 25.1 µg/mL) and over 100 µM, respectively.

For the molecule `CC[C@H](C)[C@H](NC(=O)CNC(=O)[C@H](CC(=O)O)NC(=O)[C@H](CCCNC(=N)N)NC(=O)[C@@H](NC(=O)[C@H](CC(N)=O)NC(=O)[C@H](CCC(N)=O)NC(=O)CNC(=O)[C@@H](NC(=O)[C@]1(C)CCC/C=C\CCC[C@](C)(NC(=O)[C@H](Cc2ccccc2)NC(=O)[C@H](CC(C)C)NC(=O)[C@H](CCCCN)NC(=O)[C@H](Cc2c[nH]c3ccccc23)NC(=O)[C@H](CCCCN)NC(C)=O)C(=O)N[C@@H](CCCCN)C(=O)N[C@@H]([C@@H](C)CC)C(=O)N[C@@H](CCC(=O)O)C(=O)N1)C(C)C)[C@@H](C)CC)C(=O)N[C@H](C(=O)N[C@@H](CCCCN)C(=O)N[C@@H](C)C(=O)NCC(=O)N1CCC[C@H]1C(=O)N[C@@H](C)C(=O)N[C@H](C(=O)N[C@@H](C)C(=O)N[C@H](C(=O)N[C@H](C(=O)NCC(=O)N[C@@H](CCC(N)=O)C(=O)N[C@@H](C)C(=O)N[C@H](C(=O)N[C@@H](CCC(N)=O)C(=O)N[C@H](C(=O)N[C@@H](C)C(=O)N[C@@H](CCCCN)C(N)=O)[C@@H](C)CC)[C@@H](C)O)C(C)C)C(C)C)C(C)C)[C@@H](C)CC` (Ac-KWKLF[S5]KIE[S5]VGQNIRDGIIKAGPAVAVVGQATQIAK-NH2; staple (Z) 6-10), the MIC in the experiment on Staphylococcus aureus, in the experiment on Klebsiella pneumoniae and in the experiment with Pseudomonas aeruginosa was over 100 µM in each case.

As to `CC[C@H](C)[C@H](NC(=O)CNC(=O)[C@H](CC(=O)O)NC(=O)[C@H](CCCNC(=N)N)NC(=O)[C@@H](NC(=O)[C@]1(C)CCC/C=C\CCC[C@](C)(NC(=O)[C@H](CCC(=O)O)NC(=O)[C@@H](NC(=O)[C@H](CCCCN)NC(=O)[C@H](CCCCN)NC(=O)[C@H](Cc2ccccc2)NC(=O)[C@H](CC(C)C)NC(=O)[C@H](CCCCN)NC(=O)[C@H](Cc2c[nH]c3ccccc23)NC(=O)[C@H](CCCCN)NC(C)=O)[C@@H](C)CC)C(=O)N[C@@H](C(C)C)C(=O)NCC(=O)N[C@@H](CCC(N)=O)C(=O)N1)[C@@H](C)CC)C(=O)N[C@H](C(=O)N[C@@H](CCCCN)C(=O)N[C@@H](C)C(=O)NCC(=O)N1CCC[C@H]1C(=O)N[C@@H](C)C(=O)N[C@H](C(=O)N[C@@H](C)C(=O)N[C@H](C(=O)N[C@H](C(=O)NCC(=O)N[C@@H](CCC(N)=O)C(=O)N[C@@H](C)C(=O)N[C@H](C(=O)N[C@@H](CCC(N)=O)C(=O)N[C@H](C(=O)N[C@@H](C)C(=O)N[C@@H](CCCCN)C(N)=O)[C@@H](C)CC)[C@@H](C)O)C(C)C)C(C)C)C(C)C)[C@@H](C)CC` (Ac-KWKLFKKIE[S5]VGQ[S5]IRDGIIKAGPAVAVVGQATQIAK-NH2; staple (Z) 10-14), the MIC in the experiment on Staphylococcus aureus, with Klebsiella pneumoniae and with Pseudomonas aeruginosa was over 100 µM each time.

Turning to `CC[C@H](C)[C@H](NC(=O)CNC(=O)[C@H](CC(=O)O)NC(=O)[C@H](CCCNC(=N)N)NC(=O)[C@@H](NC(=O)[C@H](CC(N)=O)NC(=O)[C@]1(C)CCC/C=C\CCC[C@](C)(NC(=O)[C@@H](NC(=O)[C@H](CCCCN)NC(=O)[C@H](CCCCN)NC(=O)[C@H](Cc2ccccc2)NC(=O)[C@H](CC(C)C)NC(=O)[C@H](CCCCN)NC(=O)[C@H](Cc2c[nH]c3ccccc23)NC(=O)[C@H](CCCCN)NC(C)=O)[C@@H](C)CC)C(=O)N[C@@H](CCCCN)C(=O)N[C@@H](C(C)C)C(=O)NCC(=O)N1)[C@@H](C)CC)C(=O)N[C@H](C(=O)N[C@@H](CCCCN)C(=O)N[C@@H](C)C(=O)NCC(=O)N1CCC[C@H]1C(=O)N[C@@H](C)C(=O)N[C@H](C(=O)N[C@@H](C)C(=O)N[C@H](C(=O)N[C@H](C(=O)NCC(=O)N[C@@H](CCC(N)=O)C(=O)N[C@@H](C)C(=O)N[C@H](C(=O)N[C@@H](CCC(N)=O)C(=O)N[C@H](C(=O)N[C@@H](C)C(=O)N[C@@H](CCCCN)C(N)=O)[C@@H](C)CC)[C@@H](C)O)C(C)C)C(C)C)C(C)C)[C@@H](C)CC` (Ac-KWKLFKKI[S5]KVG[S5]NIRDGIIKAGPAVAVVGQATQIAK-NH2; staple (Z) 9-13), the MIC with Staphylococcus aureus was 1.56 µM (≈ 6.3 µg/mL); in the experiment with Klebsiella pneumoniae, 6.25 µM (≈ 25.2 µg/mL); in the experiment on Pseudomonas aeruginosa, over 100 µM.

For the molecule `CC[C@H](C)[C@H](NC(=O)[C@H](CCC(N)=O)NC(=O)[C@@H](NC(=O)[C@H](C)NC(=O)[C@H](CCC(N)=O)NC(=O)CNC(=O)[C@@H](NC(=O)[C@@H](NC(=O)[C@H](C)NC(=O)[C@@H](NC(=O)[C@H](C)NC(=O)[C@@H]1CCCN1C(=O)CNC(=O)[C@H](C)NC(=O)[C@H](CCCCN)NC(=O)[C@@H](NC(=O)[C@]1(C)CCC/C=C\CCC[C@](C)(NC(=O)[C@H](CC(N)=O)NC(=O)[C@H](CCC(N)=O)NC(=O)CNC(=O)[C@@H](NC(=O)[C@H](CCCCN)NC(=O)[C@H](CCC(=O)O)NC(=O)[C@@H](NC(=O)[C@H](CCCCN)NC(=O)[C@H](CCCCN)NC(=O)[C@H](Cc2ccccc2)NC(=O)[C@H](CC(C)C)NC(=O)[C@H](CCCCN)NC(=O)[C@H](Cc2c[nH]c3ccccc23)NC(=O)[C@H](CCCCN)NC(C)=O)[C@@H](C)CC)C(C)C)C(=O)N[C@@H](CCCNC(=N)N)C(=O)N[C@@H](CC(=O)O)C(=O)NCC(=O)N1)[C@@H](C)CC)C(C)C)C(C)C)C(C)C)[C@@H](C)O)C(=O)N[C@@H](C)C(=O)N[C@@H](CCCCN)C(N)=O` (Ac-KWKLFKKIEKVGQN[S5]RDG[S5]IKAGPAVAVVGQATQIAK-NH2; staple (Z) 15-19), the MIC is over 100 µM in the experiment on Staphylococcus aureus, 12.5 µM (≈ 50.9 µg/mL) in the experiment with Klebsiella pneumoniae and 100 µM (≈ 407 µg/mL) with Pseudomonas aeruginosa.

Broadly, the MIC is the lowest concentration found to suppress growth.
